Results on one compound are retold here after patent US20160045498A1, “METHODS OF TREATING DISEASES CHARACTERIZED BY EXCESSIVE WNT SIGNALLING” (THE WALTER AND ELIZA HALL INSTITUTE OF MEDICAL RESEARCH, priority 2013, published 2016).

Experiment [1] deals with SW480^APC cells. As to the kind of experiment: Soft agar colony growth assay, SW480APC. The experiment is classed as cell-based, human. The conditions noted are these: 10 days, AZD1480 1 μM, S3I-201 50 μM, IL11 10 ng/ml. The procedure: (§1) e Photograph of SW480 and SW480^APC CRC cells grown for 10 days under colony forming conditions in soft agar in the presence of vehicle or 1 μM of Jak2 inhibitor AZD1480 (Jak2i) (Scale bar=200 μm)
(§2) f Colony forming capacity of an isogenic pair of SW480 cells scored 10 days after the indicated treatment. (*p≦0.04; triplicate cultures and repeated).
(§3) SW480 and SW480^APC cells (Faux et al., 2004) were seeded in 2 ml of RPMI media supplemented with 10% FBS and 1% penicillin/streptomycin in 35 mm culture dishes at a density of 2×10^5 cells per dish. Three days later cultures were exposed to AZD1480 (1 μM) for 15 min. Co-immunofluorescence was then performed with antibodies to rabbit phospho-Stat3 (Tyr705, Santa Cruz #9134s, 1:200 dilution) and mouse β-catenin (Transduction Laboratories, 1:400). Colony formation assays of SW480 cells in soft agar were performed as described (Faux et al., 2004) in the presence of either AZD1480, (1 μM), the Stat3 inhibitor S3I-201 (Biovision, 50 μM) or recombinant human IL11 (Genetics Institute, 10 ng/ml). All experiments were performed in triplicates and repeated at least once. Vehicle was methylcellulose.

In experiment [2] the test system is SW480 cells. Nature of the experiment: p-STAT3 / β-CATENIN immunofluorescence and SOCS3 RT-qPCR in SW480 cells. It is filed as cell-based, human. Here is the method:
d Immunofluorescence staining for β-CATENIN or tyrosine-705 phosphorylated STAT3 in an isogenic pair of SW480 cells grown in the presence of 1 μM AZD1480 (Jak2i) or vehicle. SW480 cells are APC mutant and lack expression of functional APC protein, while SW480^APC cells have been reconstituted to express wild-type APC. Scale bar=20 μm.
g RT-qPCR expression analysis for the STAT3 target gene SOCS3 in SW480 and SW480^APC CRC cells grown for 10 days under colony forming conditions in soft agar in the presence of the indicated treatment. Expression in the vehicle-treated cultures was arbitrarily set as 1. (*p≦0.04; triplicate cultures in each of two repeats).
as §3
Gene expression analysis by RT-qPCR was performed using the SybrGreen method (ABI) as described previously (Phesse et al., 2008). Fold change was calculated using the 2^−ΔΔCT method (Livak et al., 2001). Protein expression was analysed by Western blot by transferring SDS-PAGE separated protein lysates to nitrocellulose membrane and blocked either in 5% non-fat milk powder and probed with antibodies detecting p16 (Santa Cruz; #sc-467), Bmi1 (Millipore #[…]), Actin (Sigma; #A2066) or Gapdh (Santa Cruz; #sc-69778). All antibodies were diluted 1:1000 in BSA or non-fat milk powder and incubations were performed overnight.
On the technique in general: Real-time PCR tracks product formation cycle by cycle.

In experiment [3] the test system is DLD1 cells. As to the kind of experiment: DLD1 tumor xenografts. The experiment is classed as in vivo, mice (human DLD1 xenograft). As to conditions: DLD1 (high Wnt signaling), BALB/c nude mice, daily gavage 30 mg/kg from day 7. The procedure:
c, d Tumour xenograft burden in BALB/c nude mice injected s.c. with DLD1 cells or RKO cells in PBS and receiving daily gavage with AZD1480 (30 mg/kg) or vehicle starting on the 7th day after cell inoculation. (*p≦0.0004; two sided t-test; n=8).
(In general: A xenograft is tissue or cells of one species grown in another, often human tumour cells in immunodeficient mice.)

Experiment [4] relates to SW480 cells. As to the kind of experiment: Soft agar colony growth assay, SW480. It is filed as cell-based, human. As to conditions: SW480, 10 days; AZD1480 1 μM, S3I-201 50 μM, IL11 10 ng/ml. Here is the method: as §1, §2, §3
The test system of experiment [5] is SW480 cells. Nature of the experiment: SW480 tumor xenografts. It is filed as in vivo, human. Here is the method: a Tumour xenograft burden in BALB/c nude mice injected s.c. with SW480 cells in matrigel and receiving daily gavage with AZD1480 (30 mg/kg) or vehicle starting on the 5th day after cell inoculation. (*p≦0.018; two sided t-test; n=12 mice), d Immunohistochemical analysis of p21 expression in xenograft tumours following 35 days of treatment with Jak2 inhibitor AZD1480 or vehicle. Scale bar=100 μm. e RT-qPCR expression analysis for SOCS3, p21 and CYCLIN D1 in SW480 xenografts from FIG. 5a and b (p=0.04; n=3 mice). One flank of female BALB/c nude mice was injected subcutaneously with 2×10^6 SW480 cells resuspended in Matrigel (BD Biosciences)/PBS (1:1) at a final volume of 200 μl. Once tumor became palpable (>100 mm^3) approximately 5 days later, mice received continuous daily gavage of the Jak2 inhibitor AZD1480 ([…] et al., 2009) (30 mg/kg, a gift from Astra-Zeneca). Gene expression analysis by RT-qPCR was performed using the SybrGreen method (ABI) as described previously ([…] et al., 2008). Fold change was calculated using the 2^-ΔΔCT method (Livak et al., 2001). Protein expression was analysed by Western blot by transferring SDS-PAGE separated protein lysates to nitrocellulose membrane and blocked either in 5% non-fat milk powder and probed with antibodies detecting p16 (Santa Cruz; #sc-467), Bmi1 (Millipore #[…]), Actin (Sigma; #A2066) or Gapdh (Santa Cruz; #sc-69778). All antibodies were diluted 1:1000 in BSA or non-fat milk powder and incubations were performed overnight. Tissues were fixed and immunohistochemistry performed as described previously (Sansom et al., 2007). Primary antibodies used were rabbit phospho-Stat3 to Tyr705 (Santa Cruz #9134s, 1:150), mouse β-catenin (Transduction Laboratories, 1:300), rabbit PCNA (Santa Cruz #7907, 1:100), rabbit […] (Santa Cruz N-262. Lot #C1309, 1:200), and goat p21 (Santa Cruz #Sc-397-G; 1:100).

Turning to `Cc1cc(Nc2nc(N[C@@H](C)c3ncc(F)cn3)ncc2Cl)n[nH]1` [AZD1480], the “colony formation in soft agar” value in experiment [1] is listed as “did not affect colony formation”. In addition, the “accumulation of nuclear β-CATENIN” value in experiment [2] (APC-deficient SW480, 1 μM AZD1480) is “did not diminish”. The “accumulation of activated (phosphorylated) p-STAT3” value in experiment [2] (SW480, 1 μM AZD1480) was “reduced accumulation”. Moreover, the SOCS3 expression result in experiment [2] (SW480, RT-qPCR, AZD1480 1 μM, IL11 10 ng/ml) is listed as “reduced SOCS3 expression”. Further, the xenograft growth entry in experiment [3] is reported as “sufficient to reduce xenograft growth”. In experiment [4], the “colony formation in soft agar” value is on record as “strongly impaired”. The “growth of established SW480 tumours” value in experiment [5] (BALB/c nude mice, s.c., daily gavage 30 mg/kg from day 5) is “reduced the growth”. Moreover, in experiment [5] (RNA from SW480 xenografts), the “CYCLIND1 expression (RT-qPCR)” value is on record as “decrease”, the “SOCS3 expression (RT-qPCR)” value is listed as “decrease” and the “p21 expression (RT-qPCR)” value is recorded as “increased”. For the same compound, the “p21 expression in tumours (immunohistochemistry)” value in experiment [5] (SW480 xenografts, 35 days of treatment, vs vehicle) was “increased”.
